Reference: PubChem BioAssay AID1745844 (Carcinogenic Potency Database (CPDB), 2022)
Active and inactive are the calls of the source. No rule for the calls is given here.

Tested on: rodent lifetime carcinogenesis bioassay, tumor incidence TD50
Assay: chronic cancer bioassays in animals – CPDB, compiled studies (AID 1745844)

## CC1CO1 (stereo not given)
mouse, strain B6C3F1, females, inhaled, site: all sites, lesion: hemangioma + hemangiosarcoma, dosed 103 weeks, study length 104 weeks
  TD50: 863 mg/kg/day
mouse, strain B6C3F1, females, inhaled, site: all sites, lesion: hemangioma, dosed 103 weeks, study length 104 weeks
  TD50: 1810 mg/kg/day
mouse, strain B6C3F1, females, inhaled, site: all sites, lesion: hemangiosarcoma, dosed 103 weeks, study length 104 weeks
  TD50: 1610 mg/kg/day
mouse, strain B6C3F1, females, inhaled, site: any site (literature study), lesion: several types, types named in the paper, dosed 103 weeks, study length 104 weeks
  TD50: 226 mg/kg/day
mouse, strain B6C3F1, females, inhaled, site: liver, lesion: hepatocellular adenoma + hepatocellular carcinoma + neoplastic nodule, dosed 103 weeks, study length 104 weeks
  TD50: 979 mg/kg/day
mouse, strain B6C3F1, females, inhaled, site: lung, lesion: alveolar/bronchiolar adenoma + alveolar/bronchiolar carcinoma, dosed 103 weeks, study length 104 weeks
  TD50: 588 mg/kg/day
mouse, strain B6C3F1, females, inhaled, site: lung, lesion: alveolar/bronchiolar adenoma, dosed 103 weeks, study length 104 weeks
  TD50: 588 mg/kg/day
mouse, strain B6C3F1, females, inhaled, site: mammary gland, lesion: adenocarcinoma + adenosquamous carcinoma, dosed 103 weeks, study length 104 weeks
  TD50: 1260 mg/kg/day
mouse, strain B6C3F1, females, inhaled, site: mammary gland, lesion: adenosquamous carcinoma, dosed 103 weeks, study length 104 weeks
  TD50: 2770 mg/kg/day
mouse, strain B6C3F1, females, inhaled, site: nasal cavity, lesion: hemangioma + hemangiosarcoma, dosed 103 weeks, study length 104 weeks
  TD50: 1210 mg/kg/day
mouse, strain B6C3F1, females, inhaled, site: nasal cavity, lesion: hemangioma, dosed 103 weeks, study length 104 weeks
  TD50: 2020 mg/kg/day
mouse, strain B6C3F1, males, inhaled, site: all sites, lesion: hemangioma + hemangiosarcoma, dosed 103 weeks, study length 104 weeks
  TD50: 753 mg/kg/day
mouse, strain B6C3F1, males, inhaled, site: any site (literature study), lesion: several types, types named in the paper, dosed 103 weeks, study length 104 weeks
  TD50: 722 mg/kg/day
mouse, strain B6C3F1, males, inhaled, site: nasal cavity, lesion: hemangioma + hemangiosarcoma, dosed 103 weeks, study length 104 weeks
  TD50: 732 mg/kg/day
mouse, strain B6C3F1, males, inhaled, site: nasal cavity, lesion: hemangioma, dosed 103 weeks, study length 104 weeks
  TD50: 1470 mg/kg/day
mouse, strain B6C3F1, males, inhaled, site: nasal cavity, lesion: hemangiosarcoma, dosed 103 weeks, study length 104 weeks
  TD50: 1610 mg/kg/day
rat, strain Fischer 344, females, inhaled, site: any site (literature study), lesion: several types, types named in the paper, dosed 103 weeks, study length 104 weeks
  TD50: 124 mg/kg/day
rat, strain Fischer 344, females, inhaled, site: cervix uteri + uterus, lesion: endometrial stromal polyp + endometrial stromal sarcoma, dosed 103 weeks, study length 104 weeks
  TD50: 156 mg/kg/day
rat, strain Fischer 344, females, inhaled, site: nasal cavity, lesion: papillary adenoma, dosed 103 weeks, study length 104 weeks
  TD50: 732 mg/kg/day
rat, strain Fischer 344, males, inhaled, site: adrenal gland, lesion: pheochromocytoma, dosed 101 weeks, study length 104 weeks
  TD50: 35.1 mg/kg/day
rat, strain Fischer 344, males, inhaled, site: any site (literature study), lesion: several types, types named in the paper, dosed 103 weeks, study length 104 weeks
  TD50: 220 mg/kg/day
rat, strain Fischer 344, males, inhaled, site: liver, lesion: hepatocellular adenoma + hepatocellular carcinoma + neoplastic nodule, dosed 103 weeks, study length 104 weeks
  TD50: 528 mg/kg/day
rat, strain Fischer 344, males, inhaled, site: liver, lesion: hepatocellular carcinoma, dosed 101 weeks, study length 104 weeks
  TD50: 2960 mg/kg/day
rat, strain Fischer 344, males, inhaled, site: nasal cavity, lesion: papillary adenoma, dosed 103 weeks, study length 104 weeks
  TD50: 826 mg/kg/day
rat, strain Sprague-Dawley, females, by gavage, site: forestomach, lesion: squamous-cell carcinoma, dosed 109 weeks, study length 150 weeks
  TD50: 44.3 mg/kg/day
rat, strain Sprague-Dawley, females, by gavage, site: stomach, lesion: several types, types named in the paper, dosed 109 weeks, study length 150 weeks
  TD50: 39.5 mg/kg/day
rat, strain Wistar-random, females, inhaled, site: any site (literature study), lesion: malignant tumor, dosed 123 weeks, study length 123 weeks
  TD50: 150 mg/kg/day
rat, strain Wistar-random, females, inhaled, site: any site (literature study), lesion: one or several types, types not named, dosed 123 weeks, study length 123 weeks
  TD50: 25.7 mg/kg/day
rat, strain Wistar-random, females, inhaled, site: liver, lesion: cholangioma, dosed 123 weeks, study length 123 weeks
  TD50: 2460 mg/kg/day
rat, strain Wistar-random, females, inhaled, site: mammary gland, lesion: adenocarcinoma, dosed 123 weeks, study length 123 weeks
  TD50: 813 mg/kg/day
rat, strain Wistar-random, females, inhaled, site: mammary gland, lesion: fibroadenoma, dosed 123 weeks, study length 123 weeks
  TD50: 92.6 mg/kg/day
rat, strain Wistar-random, males, inhaled, site: any site (literature study), lesion: malignant tumor, dosed 124 weeks, study length 124 weeks
  TD50: 101 mg/kg/day
rat, strain Wistar-random, males, inhaled, site: any site (literature study), lesion: one or several types, types not named, dosed 124 weeks, study length 124 weeks
  TD50: 79.3 mg/kg/day
rat, strain Wistar-random, males, inhaled, site: respiratory system, lesion: carcinoma, dosed 124 weeks, study length 124 weeks
  TD50: 896 mg/kg/day

## S=C=NCCCc1ccccc1
rat, strain Fischer 344, males, in feed, site: testis, lesion: interstitial-cell tumor, dosed 89 weeks, study length 89 weeks
  TD50: 4.34 mg/kg/day

## NNC(N)=O
mouse, strain Swiss albino, females, in drinking water, site: blood vessels, lesion: angioma, dosed 118 weeks, study length 118 weeks
  TD50: 975 mg/kg/day
mouse, strain Swiss albino, females, in drinking water, site: blood vessels, lesion: angiosarcoma, dosed 118 weeks, study length 118 weeks
  TD50: 798 mg/kg/day
mouse, strain Swiss albino, females, in drinking water, site: blood vessels, lesion: several types, types named in the paper, dosed 118 weeks, study length 118 weeks
  TD50: 395 mg/kg/day
mouse, strain Swiss albino, females, in drinking water, site: liver, lesion: several types, types named in the paper, dosed 118 weeks, study length 118 weeks
  TD50: 798 mg/kg/day
mouse, strain Swiss albino, females, in drinking water, site: lung, lesion: adenoma, dosed 118 weeks, study length 118 weeks
  TD50: 333 mg/kg/day
mouse, strain Swiss albino, females, in drinking water, site: lung, lesion: several types, types named in the paper, dosed 118 weeks, study length 118 weeks
  TD50: 223 mg/kg/day
mouse, strain Swiss albino, males, in drinking water, site: liver, lesion: hepatoma, dosed 118 weeks, study length 118 weeks
  TD50: 1420 mg/kg/day (inactive)
mouse, strain Swiss albino, males, in drinking water, site: liver, lesion: several types, types named in the paper, dosed 118 weeks, study length 118 weeks
  TD50: 933 mg/kg/day
mouse, strain Swiss albino, males, in drinking water, site: lung, lesion: adenoma, dosed 118 weeks, study length 118 weeks
  TD50: 745 mg/kg/day
mouse, strain Swiss albino, males, in drinking water, site: lung, lesion: several types, types named in the paper, dosed 118 weeks, study length 118 weeks
  TD50: 833 mg/kg/day
